Our source for the IC50 and Ratio values is US7285555B2, “6-aryl-7-halo-imidazo[1,2-a]pyrimidines as anticancer agents” (Wyeth Holdings Corporation, priority 2003, dated 2007).

As a reminder, the IC50 is the concentration at which inhibition is half-maximal. A low value points to higher potency.

The test system of one test is COLO 205 cells. Nature of the test: MTS cytotoxicity test procedure with COLO 205 cells. Type of test: cell-based. The following applies: Homo sapiens, 72 h, MTS assay, three days of culture. The protocol:
(§1) The MTS assay, which is sold in kit form by Promega (Madison, Wis.; CellTiter 96 AQueous Non-Radioactive Cell Proliferation Assay), is based on the conversion by viable cells, but not by dead cells, of the tetrazolium salt, MTS (3-(4,5-dimethylthiazol-2-yl)-5-(3-carboxymethoxyphenyl)-2-(4-sulphophenyl)-2H-tetrazolium, inner salt), into a water-soluble colored formazan which is detected by spectrophotometry. Compounds are tested at nine concentrations, in order to determine IC50 values. For the test procedure, cells are harvested by trypsinization (or, in the case of non-adherent cells, by simple resuspension), washed, counted and distributed to wells of 96-well flat-bottom microtiter plates at 1000 cells per well in 200 μL of medium. In addition, one row of wells on a separate plate receives cells as above (“time 0” plate). All plates are incubated at 370 in humidified 5% CO2 in air for about 24 hr.
On day 2, compounds for test are diluted and added to wells. Compounds are dissolved in DMSO at 10 mg/mL. For each compound, nine serial 2-fold dilutions are prepared in DMSO. Ten μL of each dilution in DMSO is transferred to 100 μL of medium, mixed well, and then 5 μL of this dilution is transferred in quadruplicate to wells containing cells. The final high concentration of each compound is typically 1-5 μM. Plates are returned to the incubator for three days. At the time of drug addition to the experimental plates, the MTS assay is run on the “time 0” plate. This gives the “time 0 MTS value” which is related to the number of viable cells per well at the time of drug addition.
After three days of culture with test compounds (day 5 overall), the MTS assay is done on all wells of the experimental plates. The absorbance values of the quadruplicate sample wells are averaged and divided by the average of the “time 0” values. The average of control wells without drug, divided by the average “time 0” value, gives the maximal relative increase in MTS color yield due to cell growth during the final three days of culture. The average of control wells with high drug concentration, divided by the “time 0” value, gives the minimal relative color yield for cells that were completely killed. The nine values for each compound are plotted against concentration, and the concentration that produces a relative color yield half way between the maximum and minimum is taken as the IC50 value.
COLO 205 is a human colon carcinoma cell line that is used for comparative testing of the examples of this invention and several reference compounds (Table 1). This line is sensitive to paclitaxel and vincristine.
A general note: Tetrazolium assays rely on reduction of a dye to a coloured formazan, in cell work by metabolically active cells.

The next test concerns HL-60/ADR cells. Nature of the test: MTS cytotoxicity test procedure with HL-60/ADR cells. The settings on record: for Ratio: IC50 on HL-60/ADR cells/IC50 on HL-60 cells. Type of test: cell-based, human.
From the text: Human cancer cell lines, unless otherwise noted, are obtained from the American Type Culture Collection (Rockville, Md.). The following drug-sensitive parental cell lines, and their derived drug-resistant counterparts, are obtained from the originators as listed: (a) S1 (parental line from a subclone of human colon carcinoma line LS174T) and derived S1-M1-3.2 (herein called S1-M1) which expresses the MXR drug transporter protein, are provided by Dr. L. Greenberger, Wyeth Research (Rabindran, S. K., He, H., Singh, M., Brown, E., Collins, K. I., Annable, T., and Greenberger, L. M. Reversal of a novel multidrug resistance mechanism in human colon carcinoma cells by fumitremorgin C. Cancer Res., 58: 5850-5858,1998); (b) parental HL-60 human promyelocytic leukemia line and derived HL-60/ADR, which expresses the MRP1 drug transporter protein, are provided by Dr. M. Center, University of Kansas (McGrath, T., and Center, M. S. Adriamycin resistance in HL60 cells in the absence of detectable P-glycoprotein. Biochem. Biophys. […] J. Biol. Chem., 261: 7762-7770, 1986) via Dr. L. Greenberger, Wyeth Research.
as §1
On day 2, compounds for test are diluted and added to wells. Compounds are dissolved in DMSO at 10 mg/mL. For each compound, nine serial 2-fold dilutions are prepared in DMSO. Ten μL of each dilution in DMSO is transferred to 100 μL of medium, mixed well, and then 5 μL of this dilution is transferred in quadruplicate to wells containing cells. […] Plates are returned to the incubator for three days. At the time of drug addition to the experimental plates, the MTS assay is run on the “time 0” plate.
After three days of culture with test compounds (day 5 overall), the MTS assay is done on all wells of the experimental plates. The absorbance values of the quadruplicate sample wells are averaged and divided by the average of the “time 0” values. […] The nine values for each compound are plotted against concentration, and the concentration that produces a relative color yield half way between the maximum and minimum is taken as the IC50 value.
HL-60/ADR cells overexpress the multidrug resistance protein MRP1 which mediates resistance to some chemotherapeutics (Gottesman, M. M., Fojo, T., and Bates, S. E. Multidrug resistance in cancer: role of ATP-dependent transporters. Nature Rev. Cancer, 2: 48-58, 2002). The IC50 values of example 6 of this invention, as well as reference compounds, on HL-60/ADR are compared to values on the sensitive parental HL-60 line.

The test system of another test is KB cells. Put plainly: MTS cytotoxicity test procedure with KB cells. The following applies: Homo sapiens, MTS assay, means of 2 independent experiments. Type of test: cell-based. From the text: Human cancer cell lines, unless otherwise noted, are obtained from the American Type Culture Collection (Rockville, Md.). […]
The MTS assay, which is sold in kit form by Promega (Madison, Wis.; CellTiter 96 AQueous Non-Radioactive Cell Proliferation Assay), is based on the conversion by viable cells, but not by dead cells, of the tetrazolium salt, MTS (3-(4,5-dimethylthiazol-2-yl)-5-(3-carboxymethoxyphenyl)-2-(4-sulphophenyl)-2H-tetrazolium, inner salt), into a water-soluble colored formazan which is detected by spectrophotometry. […] For the test procedure, cells are harvested by trypsinization (or, in the case of non-adherent cells, by simple resuspension), washed, counted and distributed to wells of 96-well flat-bottom microtiter plates at 1000 cells per well in 200 μL of medium. […]
After three days of culture with test compounds (day 5 overall), the MTS assay is done on all wells of the experimental plates. The absorbance values of the quadruplicate sample wells are averaged and divided by the average of the “time 0” values. […]

On to `CN(C)CCCOc1cc(F)c(-c2c(Cl)nc3nccn3c2C2CCCCCC2)c(F)c1` [Example 6, 3-[4-(7-Chloro-5-cycloheptylimidazo[1,2-a]pyrimidin-6-yl)-3,5-difluorophenoxy]-N,N-dimethylpropan-1-amine], for which the IC50 in the test on COLO 205 cells was 0.045 µM; in the test with HL-60/ADR cells (Homo sapiens, HL60/ADR, MTS assay, HL-60/ADR cells, means of 2 independent experiments), 0.029 µM; in the test on KB cells it was 0.044 µM. The Ratio is reported as 0.55 in the test with HL-60/ADR cells and “no resistance” in the test on HL-60/ADR cells (listed as example 6).
